Data reported in patent US20250127908A1, “HETEROBIFUNCTIONAL CONDITIONAL INHIBITORS” (Kolm Therapeutics Inc., priority 2023, published 2025).

Tests used:
Format in all cases: cell-based
[1] = test system: AR and CBP or p300 ternary complex; assay: Ternary complex formation assay (sandwich ELISA on lysates of treated VCaP cells: AR capture, CBP or p300 detection); conditions: VCaP cells treated with bifunctional for 1.5 hours; lysate; anti-AR capture, CBP or p300 antibody detection
Protocol: Example B-1: Ternary Complex Formation Assay
Preparation of Mouse Anti-AR Antibody Coated 96 Well Plates
Black MaxiSorp plates: coat with 50 μL of mouse 1/50 diluted AR antibody (Monoclonal Antibody (AR 441 from Thermo Fisher); diluted in phosphate buffered saline (PBS). Spin the liquid to the bottom of the wells, if necessary. Incubate overnight at 4° C. Next day, wash 3 times with 200 μL of TBST. Block with 200 μL of blocking buffer (5% BSA in TBST) at room temperature for 2 hours (BSA: A4503 or A2153 from Sigma). Wash plates 3 times with TBST. Plates are ready for lysates
Preparation of Dimerizer Treated Lysates
Culture cells in 96 wells at 50K VCaP cells/well for at least 3 days. Plate in 5% Omega charcoal stripped FBS in total volume of 200 uL. Treat with bifunctional for 1.5 hours by adding 1 μL of 200× stock in DMSO. Aspirate media/compound. Add and pipet-to-mix 70 μL of 1× AlphaLisa Lysis Buffer to each well (Perkin Elmer, AlphaLISA SureFire Ultra, diluted in water). Pipet up and down when adding lysis buffer to disrupt cells. Let lysis proceed for 30 min at 4° C.
Incubate for 1 hour at room temperature. Flick out the lysates. Wash 3 times with TBST. Add 75 uL of rabbit CBP or p300 antibody to each well (diluted 1:5000 in blocking buffer (5% BSA in TBST). CBP antibody: (D6C5) Rabbit mAb #7389; p300 antibody: (D8Z4E) Rabbit mAb #86377. Incubate overnight at 4° C. Wash 3 times with 300 uL TBST, each time on shaker for 5-10 min. Prepare goat anti-rabbit antibody conjugated to HRP (1/100K dilution in blocking buffer) Invitrogen Catalog number: 32260. Add 75 uL of HRP-conjugated goat anti-rabbit antibody. Incubate at room temperature for 1 hour. Flick out the HRP-antibody mixture. Wash 7-8 times with TBST, each time on shaker for 10 min. Later washes try to overflow the wells so that no residual HRP remains bound to the sides of the well. Prepare and add 75 uL/well of QuantaRed Enhance Chemifluorescent HRP Substrate solution. Immediately read fluorescence on BMG ClarioStar (ex: 570/em 585), and repeat the read in 5 minutes and 15 minutes.

VCaP cells = assay: VCaP growth inhibition assay (CTG); conditions: Homo sapiens, 216 h, 30 pM R1881, 9-day treatment, CTG luminescence
Protocol: Example B-2: VCaP Growth Inhibition Assay
VCaP cells (ATCC Cat #CRL-2876) are plated at 1×10^4 cells per well of a white plastic 96-well cluster plate (Thermo Scientific Nunc Cat #165306) in 100 uL phenol red-free DMLEM (Gibco Cat #21063-029) media with […] (Omega Scientific Cat #FB-04). Cluster plates are returned to the incubator (37*C/5% CO2) for 72 hours prior to treatment. Just prior to treatment, 100 uL of phenol red-free DMEM/5% CSS and 60 pM Ri881 (Sigma Cat #R0908-10 mg) was added to each well of the cluster plates (Final R1881 concentration=30 pM). Compounds (200×) were added to each well in a volume of 1 uL, with serial dilutions (1:5) from 20 uM to 2 pM (final concentrations in well are 100 nM to 10 fMV). Cluster plates are returned to the incubator for 9 days.
(§1) After the 9-day treatment period, media was removed from the cluster plates by inversion and 100 uL room temperature CTG reagent (Promega Cat #G7573) is added to each well. The cluster plates are placed on a shaker and incubated at room temperature for 20 minutes. Following this shaking/incubation, cluster plates are read on a luminometer (BMG ClarioStar). IC50 values are obtained by graphing the RLU data vs. compound concentration with nonlinear regression 4-parameter logistic curves (GraphPad Prism).

HEK-293 cells = assay: HEK-293 growth inhibition assay (CTG); conditions: Homo sapiens, HEK293, 72 h, 3-day treatment, CTG luminescence
Protocol: Example B-4: HEK-293 Growth Inhibition Assay
HEK-293 cells (ATCC Cat #CRL-1573) are plated at 3×10^3 cells per well of a white plastic 96-well cluster plate (Thermo Scientific Nunc Cat #165306) in 200 uL DMLEM (ATCC Cat #30-2002) media with 10% FBS (Gibco Cat #26140-079). Cluster plates are returned to the incubator (37*C/5% CO2) for 24 hours prior to treatment. Compounds (200×) were added to each well in a volume of 1 uL, with serial dilutions (1:5) from 2 mM to 200 pM (final concentrations in well are 10 uM to 1 pM). Cluster plates are returned to the incubator for 3 days.
as §1, with “3-day” for “9-day”, “period, 100 uL” for “period,”, “each well” for “the cluster plates”, “aspiration” for “inversion”, “added back” for “added”, “ICs50” for “IC50”

With CC(=O)N1CCc2c(c(N3CCCc4cc(-c5cnn(C)c5)c(C(F)F)cc43)nn2C2CCN(CCCOc3ccc(-c4ccc(N5C(=S)N(c6ccc(C#N)c(C(F)(F)F)c6)C(=O)C5(C)C)cc4)cc3)CC2)C1 [Compound 1, 4-[3-[4-[4-[3-[4-[5-acetyl-3-[7-(difluoromethyl)-6-(1-methylpyrazol-4-yl)-3,4-dihydro-2H-quinolin-1-yl]-6,7-dihydro-4H-pyrazolo[4,3-c]pyridin-1-yl]-1-piperidyl]propoxy]phenyl]phenyl]-4,4-dimethyl-5-oxo-2-thioxo-imidazolidin-1-yl]-2-(trifluoromethyl)benzonitrile] the “Average Ternary Complex” value [1] was “B (B is >1 nM and ≤10 nM)” and the IC50 (VCaP cells) was greater than 100 nM.

With CC(=O)N1CCc2c(c(N3CCCc4cc(-c5cnn(C)c5)c(C(F)F)cc43)nn2C2CCN(CCCOc3ccc(C4CCN(c5ccc(C#N)c(C(F)(F)F)c5)CC4)cc3)CC2)C1 [Compound 4, 4-[4-[4-[3-[4-[5-acetyl-3-[7-(difluoromethyl)-6-(1-methylpyrazol-4-yl)-3,4-dihydro-2H-quinolin-1-yl]-6,7-dihydro-4H-pyrazolo[4,3-c]pyridin-1-yl]-1-piperidyl]propoxy]phenyl]-1-piperidyl]-2-(trifluoromethyl)benzonitrile] the “Average Ternary Complex” value [1] was “D (D is active and >100 nM)” and the IC50 (VCaP cells) was greater than 100 nM.

With CNC(=O)N1CCc2c(c(N3CCCc4cc(-c5cnn(C)c5)c(C(F)F)cc43)nn2C2CCN(C(=O)COCCOCC3CCN(CC4CCN(c5ccc([C@H]6c7ccc(O)cc7CC[C@H]6c6ccccc6)cc5)CC4)CC3)CC2)C1 [Compound 10, 3-[7-(difluoromethyl)-6-(1-methylpyrazol-4-yl)-3,4-dihydro-2H-quinolin-1-yl]-1-[1-[2-[2-[[1-[[1-[4-(6-hydroxy-2-phenyl-tetralin-1-yl)phenyl]-4-piperidyl]methyl]-4-piperidyl]methoxy]ethoxy]acetyl]-4-piperidyl]-N-methyl-6,7-dihydro-4H-pyrazolo[4,3-c]pyridine-5-carboxamide] the IC50 (VCaP cells) was 1 to 100 nM and the IC50 (HEK-293 cells) was greater than 1000 nM.

With CC(=O)N1CCc2c(c(N3CCCc4cc(C#N)ccc43)nn2C2CCN(C(=O)C3CCN(c4ccc(C5CCN(c6ccc(C#N)c(C(F)(F)F)c6)CC5)cc4)CC3)CC2)C1 [Compound 12, 1-[5-acetyl-1-[1-[1-[4-[1-[4-cyano-3-(trifluoromethyl)phenyl]-4-piperidyl]phenyl]piperidine-4-carbonyl]-4-piperidyl]-6,7-dihydro-4H-pyrazolo[4,3-c]pyridin-3-yl]-3,4-dihydro-2H-quinoline-6-carbonitrile] the “Average Ternary Complex” value [1] was “D (D is active and >100 nM)” and the IC50 (VCaP cells) was greater than 100 nM.

In the case of CC(=O)N1CCc2c(c(N3CCCc4cc(C#N)ccc43)nn2C2CCN(CC3CCN(c4ccc(C5CCN(c6ccc(C#N)c(C(F)(F)F)c6)CC5)cc4)CC3)CC2)C1 [Compound 13, 1-[5-acetyl-1-[1-[[1-[4-[1-[4-cyano-3-(trifluoromethyl)phenyl]-4-piperidyl]phenyl]-4-piperidyl]methyl]-4-piperidyl]-6,7-dihydro-4H-pyrazolo[4,3-c]pyridin-3-yl]-3,4-dihydro-2H-quinoline-6-carbonitrile], the “Average Ternary Complex” value [1] is reported as “D (D is active and >100 nM)” and the IC50 (VCaP cells) is reported as greater than 100 nM.

With CC(=O)N1CCc2c(c(-c3cccc4cc(-c5ccc(CCC6CCN(c7ccc(C8CCN(c9ccc(C#N)c(C(F)(F)F)c9)CC8)cc7)CC6)nc5)ncc34)nn2C2CCOCC2)C1 [Compound 14, 4-[4-[4-[4-[2-[5-[8-(5-acetyl-1-tetrahydropyran-4-yl-6,7-dihydro-4H-pyrazolo[4,3-c]pyridin-3-yl)-3-isoquinolyl]-2-pyridyl]ethyl]-1-piperidyl]phenyl]-1-piperidyl]-2-(trifluoromethyl)benzonitrile] the “Average Ternary Complex” value [1] was “D (D is active and >100 nM)” and the IC50 (VCaP cells) was greater than 100 nM.

For CC(=O)N1CCc2c(c(-c3cccc4cc(-c5cnn(CCOC6CCN(c7ccc(C8CCN(c9ccc(C#N)c(C(F)(F)F)c9)CC8)cc7)CC6)c5)ncc34)nn2C2CCOCC2)C1 [Compound 15, 4-[4-[4-[4-[2-[4-[8-(5-acetyl-1-tetrahydropyran-4-yl-6,7-dihydro-4H-pyrazolo[4,3-c]pyridin-3-yl)-3-isoquinolyl]pyrazol-1-yl]ethoxy]-1-piperidyl]phenyl]-1-piperidyl]-2-(trifluoromethyl)benzonitrile], the “Average Ternary Complex” value [1] was “D (D is active and >100 nM)” and the IC50 (VCaP cells) was 1 to 100 nM.
